In brackets after ≈: the same amount, converted by molar mass. Like-named read-outs stand apart in the source and are kept apart here.
Tests used:
C-170 = test: Bioassay for apoptosis (apoptotic EC50); type: cell-based, human; details: Homo sapiens, C170, C-170; unit inferred
Method: (§1) Cells were cultured at 1.5×10^5 cells/well in 12 well plates. Cells were allowed to adhere overnight, then incubated with novel test compounds at 0.01, 0.1, 1, 5, 10 & 20 μg/mL for 1, 2 and 3 days. After treatment, cells (floating+trypsin released adherent cells) were pelleted, washed and stained with 2 μg/ml DAPI (4′,6-diamidine-2′-phenylindole dihydrochloride) in 100% methanol for 15 minutes at 37° C. and/or 3′-OH ends resulting from DNA fragmentation were detected with the TUNEL (terminal deoxynucleotidyl transferase-mediated dUTP-X 3′ nick end-labeling) technique, and then viewed using a Zeiss ICM 405 microscope. Cells whose nucleus contained clearly condensed or fragmented chromatin or stained for fragmented DNA in the TUNEL assay were scored as apoptotic. Data are presented as percent cells undergoing apoptosis.

HL-60 = test: Bioassay for apoptosis (apoptotic EC50); type: cell-based, human; details: Homo sapiens, HL-60, HL-60; unit inferred
Method: as §1

LnCaP = test: Bioassay for apoptosis (apoptotic EC50); type: cell-based, human; details: Homo sapiens, unit inferred
Method: as §1

MCF-7 = test: Bioassay for apoptosis (apoptotic EC50); type: cell-based, human; details: Homo sapiens, MCF7, MCF-7; unit inferred
Method: as §1

MDA-MB-231 = test: Bioassay for apoptosis (apoptotic EC50); type: cell-based, human; details: Homo sapiens, MDA-MB-231, MDA-MB-231; unit inferred
Method: as §1

MDA-MB-435 = test: Bioassay for apoptosis (apoptotic EC50); type: cell-based, human
Method: as §1

ME-180 = test: Bioassay for apoptosis (apoptotic EC50); type: cell-based, human; details: Homo sapiens, ME-180, ME-180; unit inferred
Method: as §1

PC-3 = test: Bioassay for apoptosis (apoptotic EC50); type: cell-based, human; details: Homo sapiens, PC-3, PC-3; unit inferred
Method: as §1

RL-95-2 = test: Bioassay for apoptosis (apoptotic EC50); type: cell-based, human; details: Homo sapiens, RL95-2, RL-95-2; unit inferred
Method: as §1

HMEC = test: Bioassay for apoptosis (apoptotic EC50); type: cell-based; details: Homo sapiens, unit inferred
Method: as §1

MCF-10A = test: Bioassay for apoptosis (apoptotic EC50); type: cell-based; details: Homo sapiens, unit inferred
Method: as §1

T47D = test: Bioassay for apoptosis (apoptotic EC50); type: cell-based; details: Homo sapiens, unit inferred
Method: as §1

[1] = tested on: human cancer cells from a wide variety of cell lineages; test: Apoptosis induction in a battery of tumor cells; type: cell-based; details: breast, prostate, leukemia/lymphoid, cervical, ovarian, endometrial, colon, lung cell lines
Method: as §1

[2] = tested on: breast tumor cell line MDA-MB-435; test: Bioassay for DNA synthesis arrest, naturally occurring vitamin E compounds; type: cell-based, human; details: Table 1
Method: Table 1 provides tumor growth inhibitory properties of naturally occurring vitamin E compounds against the breast tumor cell line MDA-MB-435.
To assay DNA synthesis, all cells were used at 2.5×10^5/ml. Cells were treated with each of the compounds at concentrations of 0.01, 0.1, 1, 5, 10 and 20 μg/mL and 200 μl of each treatment group were plated in quadruplicate in a 96 well culture plate (Corning, Corning N.Y.). Experiments were done in duplicate, one plate used for viability testing and the other plate for examination of ^3H-TdR uptake to monitor DNA synthesis. Plates were cultured for 48 hours at 37° C., 5% CO2. Eight hours prior to the end of incubation, ^3H-TdR was added to one of the duplicate plates and incubation continued for 8 hours.
The cells were then harvested (trypsinization was required to harvest adherent cells), and isotope uptake was determined as counts per minute (cpm). For viability studies, at the end of the incubation, the cells were removed from the wells and viability checked by the Trypan Blue Exclusion method. Percent viability and percent DNA synthesis in comparison to untreated or vehicle treated cells of each treatment group were calculated.

MCF-7 cells [3] = test: DNA synthesis arrest by 3H-uptake (Example 8); type: cell-based, human; details: 5% serum, 3H-uptake at one day treatment
Method: (§2) MDA-MB-435 and MCF-7 cells at 1.5×10^5/well in 12 well plates for apoptosis and 1.5×10^4/well in 96 well plates for DNA synthesis arrest were incubated overnight in culture media and treated with α-tocopherol, α-tocotrinel, compound 1, 6-0-carboxymethyl alpha-tocotrienol (6-0-CM-α-T, 44), and vitamin E succinate (VES) at different concentrations in experimental media (2% serum for MDA-MB-435 cells and 5% serum for MCF-7 cells). DNA synthesis arrest was determined by ^3H-uptake at one day treatment and apoptosis was detected by DAPI staining at three day treatment. EC50 was calculated as the dosage of test compounds that gave 50% growth inhibition.

MDA-MB-435 cells [4] = test: DNA synthesis arrest by 3H-uptake (Example 8); type: cell-based, human; details: MDA-MB-435; 2% serum; 3H-uptake at one day treatment
Method: as §2

MCF-7 cells [5] = test: Apoptosis by DAPI staining (Example 8); type: cell-based, human; details: 5% serum, DAPI staining at three day treatment
Method: as §2

MDA-MB-435 cells [6] = test: Apoptosis by DAPI staining (Example 8); type: cell-based, human; details: MDA-MB-435; 2% serum; DAPI staining at three day treatment
Method: as §2

A-549 = test: Bioassay for apoptosis (apoptotic EC50); type: cell-based, human; details: Homo sapiens, A549, unit inferred
Method: as §1

DU-145 = test: Bioassay for apoptosis (apoptotic EC50); type: cell-based, human; details: Homo sapiens, unit inferred
Method: as §1

Jurkat = test: Bioassay for apoptosis (apoptotic EC50); type: cell-based, human; details: Homo sapiens, unit inferred
Method: as §1

DLD-1 = test: Bioassay for apoptosis (apoptotic EC50); type: cell-based, human; details: Homo sapiens, unit inferred
Method: as §1

HT-29 = test: Bioassay for apoptosis (apoptotic EC50); type: cell-based, human; details: Homo sapiens, unit inferred
Method: as §1

[7] = Homo sapiens, MDA-MB-435, MDA-MB-435, unit inferred, read-out: apoptotic EC50
[8] = MDA-MB-435, Table 1, read-out: EC50 for Apoptosis

EC50 (HL-60) [µg/mL] | EC50 (LnCaP) [µg/mL] | EC50 (MCF-7) [µg/mL] | EC50 (MDA-MB-435; [7]) [µg/mL] | EC50 (PC-3) [µg/mL] | EC50 (T47D) [µg/mL] | EC50 (MDA-MB-435; [8]) [µM] | EC50 [2] [µM] | EC50 (DU-145) [µg/mL] | SMILES | EC50 (MCF-10A) [µg/mL] | growth inhibitory (apoptotic inducing) properties specific for human cancer cells [1] | other results
5 to 10 (≈ 10.5 to 21.1 µM) | 2.5 to 5 (≈ 5.27 to 10.5 µM) | 10 to 20 (≈ 21.1 to 42.1 µM) | 5 to 10 | 5 to 10 (≈ 10.5 to 21.1 µM) | > 20 |  |  |  | Cc1cc(OCC(=O)O)c(C)c2c1O[C@](C)(CCC[C@H](C)CCC[C@H](C)CCCC(C)C)CC2 [Compound 7, 2,5,8-trimethyl-(2R-(4R,8R,12-trimethyltridecyl)chroman-6-yloxy) acetic acid] | > 20 | effective | EC50 (C-170): 10 to 20 µg/mL (≈ 21.1 to 42.1 µM); EC50 (MDA-MB-231): 5 to 10 µg/mL (≈ 10.5 to 21.1 µM); EC50 (ME-180): 5 to 10 µg/mL (≈ 10.5 to 21.1 µM); EC50 (RL-95-2): 5 to 10 µg/mL (≈ 10.5 to 21.1 µM); EC50 (HMEC): > 20 µg/mL
 |  |  |  |  |  | > 400 | > 400 |  | Cc1c(C)c2c(c(C)c1O)CC[C@@](C)(CCC[C@H](C)CCC[C@H](C)CCCC(C)C)O2 [α-tocopherol, RRR-α-tocopherol, reference compound] |  |  | EC50 (MCF-7 cells [3]): > 100 µM; EC50 (MDA-MB-435 cells [4]): > 100 µM; EC50 (MCF-7 cells [5]): > 100 µM; EC50 (MDA-MB-435 cells [6]): > 100 µM
 |  |  |  |  |  | 100 | 150 |  | Cc1cc(O)cc2c1O[C@](C)(CCC[C@H](C)CCC[C@H](C)CCCC(C)C)CC2 [δ-tocopherol, reference compound] |  |  | 
10 (≈ 20.5 µM) | 5 to 10 (≈ 10.3 to 20.5 µM) | 5 to 10 (≈ 10.3 to 20.5 µM) | 10 to 20 | 5 to 10 (≈ 10.3 to 20.5 µM) | 5 to 10 (≈ 10.3 to 20.5 µM) |  |  | 5 to 10 (≈ 10.3 to 20.5 µM) | Cc1c(C)c2c(c(C)c1OCC(=O)O)C=C[C@@](C)(CCC[C@H](C)CCC[C@H](C)CCCC(C)C)O2 [Compound 20, 2,5,7,8-tetramethyl-(2R-(4R,8R,12-trimethyltridecyl)chroman-3-ene-6-yloxy)acetic acid] | > 20 | effective | EC50 (A-549): 20 to 30 µg/mL (≈ 41.1 to 61.6 µM); EC50 (Jurkat): 10 to 20 µg/mL (≈ 20.5 to 41.1 µM); EC50 (ME-180): 1 to 5 µg/mL (≈ 2.05 to 10.3 µM)
> 20 | 10 to 20 (≈ 24.2 to 48.5 µM) | > 20 | 20 to 40 | > 20 | > 20 |  |  | > 20 | CC(C)=CCC/C(C)=C\C=C/[C@]1(C)CCc2c(C)c(OCC(=O)O)c(C)c(C)c2O1 [Compound 26] | > 20 | effective | EC50 (A-549): > 20 µg/mL; EC50 (C-170): 20 to 30 µg/mL (≈ 48.5 to 72.7 µM); EC50 (DLD-1): 20 to 40 µg/mL (≈ 48.5 to 97 µM); EC50 (HT-29): > 20 µg/mL; EC50 (Jurkat): 20 to 30 µg/mL (≈ 48.5 to 72.7 µM); EC50 (RL-95-2): 20 to 30 µg/mL (≈ 48.5 to 72.7 µM)
 | > 20 | > 20 | > 20 | > 20 |  |  |  | > 20 | CCCCCCCCCCCCC[C@]1(C)CCc2c(C)c(OCC(=O)O)c(C)c(C)c2O1 [Compound 24, 2,5,7,8-tetramethyl-(2R-(tridecyl)chroman-6-yloxy)acetic acid] |  |  | EC50 (DLD-1): > 20 µg/mL

SMILES | EC50 (HL-60) [µg/mL] | EC50 (LnCaP) [µg/mL] | EC50 (MCF-7) [µg/mL] | EC50 (MDA-MB-435; [7]) [µg/mL] | EC50 (PC-3) [µg/mL] | EC50 (T47D) [µg/mL] | EC50 (MDA-MB-435; [8]) [µM] | EC50 [2] [µM] | EC50 (DU-145) [µg/mL] | EC50 (MCF-10A) [µg/mL] | growth inhibitory (apoptotic inducing) properties specific for human cancer cells [1] | other results
CC(C)=CCC/C(C)=C/CC/C(C)=C/CC[C@]1(C)CCc2cc(O)c(C)c(C)c2O1 [γ-tocotrienol, reference compound] |  |  |  |  |  |  | 10 | 10 |  |  |  | 

Reference: patent US8148424B2, “Tocopherols, tocotrienols, other chroman and side chain derivatives and uses thereof” (Research Development Foundation, priority 1998, dated 2012)
